For one assay, the target named is PTP-MEG2 (Homo sapiens (Human), UniProt P43378). The experiment in a line: pNPP hydrolysis enzyme assay, PTP-MEG2. In kind it is biochemical. The settings on record: for IC50: pNPP substrate, pH 7.0, 25° C., read-out: IC50 for PTP-MEG2. On the procedure: (§1) Enzyme kinetic assay. PTP activity was assayed using p-nitrophenyl phosphate (pNPP) as a substrate in 3,3-dimethylglutarate buffer (50 mM 3,3-dimethylglutarate, pH 7.0, 1 mM EDTA, 150 mM NaCl, 2 mM DTT, 0.1 mg/mL BSA) at 25° C. The assays were performed in 96-well plates. Normally, to determine the IC50 values, the reaction was initiated by the addition of enzyme (final concentration at 10 nM) to a reaction mixture (0.2 mL) containing 2 mM (Km for the substrate) pNPP with various concentrations of inhibitors. The reaction rate was measured using a SpectraMax Plus 384 Microplate Spectrophotometer (Molecular Devices). To determine the mode of inhibition, the reactions were initiated by the addition of PTP-MEG2 to the reaction mixtures (0.2 mL) containing various concentrations of pNPP with different concentrations of the inhibitor 7. Data were fitted using SigmaPlot Enzyme Kinetics Module (Systat Software, Inc.).
Chain of PTP-MEG2 (P43378 277-582): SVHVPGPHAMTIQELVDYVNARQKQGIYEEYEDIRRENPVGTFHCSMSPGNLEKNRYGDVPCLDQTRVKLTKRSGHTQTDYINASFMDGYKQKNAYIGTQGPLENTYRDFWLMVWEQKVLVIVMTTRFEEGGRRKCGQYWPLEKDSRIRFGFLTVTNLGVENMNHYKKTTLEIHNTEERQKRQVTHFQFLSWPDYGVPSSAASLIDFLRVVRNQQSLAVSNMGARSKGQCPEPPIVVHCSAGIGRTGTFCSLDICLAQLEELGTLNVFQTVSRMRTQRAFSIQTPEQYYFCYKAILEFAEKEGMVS
PTP-MEG2 Overexpression, and Purification. The expression vector containing residues 277-582 of PTP-MEG2 catalytic domain was provided by Stefan Knapp at the University of Oxford. For protein expression, transformed cells were grown at 37° C. in Luria broth (LB) containing […] ampicillin for 4 h to an OD600 nm @0.6, and then induced for overnight at 18° C. with 0.4 mM IPTG. Cells were harvested by centrifugation (6500 rpm for 15 min at 4° C.), and the cell pellets from 1.5 L LB medium were suspended in 30 mL of ice-cold lysis buffer consisting of 5 mM imidazole, 500 mM NaCl, 20 mM Tris-HCl (pH 7.9), 0.05 mg/mL trypsin inhibitor and 0.1 mM PMSF. The suspensions were passed twice through a French Press at 1200 psi, and the cell lysates were centrifuged at 4° C. for 30 min at 16,000 rpm. The supernatants were mixed with 2 mL Ni-NTA Agarose (His*Bind Resin) (Qiagen) at 4° C. for 1 hour, then transferred mixture to an empty column. The column was washed by 200 mL binding buffer (5 mM imidazole, 500 mM NaCl, 20 mM Tris-HCl (pH 7.9)), followed by 20 mL wash buffer (20 mM imidazole, 500 mM NaCl, 20 mM Tris-HCl (pH 7.9)), and then eluted with 20 mL elution buffer (200 mM imidazole, 500 mM NaCl, 20 mM Tris-HCl (pH 7.9), 5 mM DTT). The elution was dialyzed for 6 h at 4° C. against 1 L buffer A (50 mM NaCl, 20 mM MES (pH6.0), 1 mM EDTA), and then loaded onto a Mono S column equilibrated at 4° C. with buffer A. The column was washed with 10 ml buffer A and then eluted with a 40 mL linear gradient of 0 to 1M NaCl in buffer A. The PTP-MEG2 was eluted at 0.35 M NaCl. The column fractions were analyzed by measuring the absorbance at 280 nm and by carrying out SDS-PAGE analysis. The fractions were combined, dialyzed against 1 L buffer A and concentrated at 4° C. to 8 mg/mL using an Amicon concentrator and then stored at −80° C.

A further assay addresses PTP1B (Homo sapiens (Human), UniProt P18031). The experiment in a line: pNPP hydrolysis enzyme assay, PTP1B. The format is biochemical. On the procedure: as §1

SMILES strings stand for the structures.

Chain of PTP1B (P18031 whole entry, species assumed): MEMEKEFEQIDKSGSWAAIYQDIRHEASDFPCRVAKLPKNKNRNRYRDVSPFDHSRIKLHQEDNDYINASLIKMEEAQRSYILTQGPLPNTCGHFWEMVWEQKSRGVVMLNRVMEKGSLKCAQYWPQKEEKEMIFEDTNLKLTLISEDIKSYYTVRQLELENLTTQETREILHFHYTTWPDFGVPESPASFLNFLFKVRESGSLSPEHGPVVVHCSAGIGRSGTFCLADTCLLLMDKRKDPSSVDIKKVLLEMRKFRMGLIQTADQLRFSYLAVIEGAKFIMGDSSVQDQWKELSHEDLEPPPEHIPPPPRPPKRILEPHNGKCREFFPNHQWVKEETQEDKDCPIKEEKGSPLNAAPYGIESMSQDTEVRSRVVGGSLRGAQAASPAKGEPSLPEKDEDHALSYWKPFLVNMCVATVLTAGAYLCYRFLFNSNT

Usually IC50 stands for the concentration at which inhibition is half-maximal. In the case of `Cc1ccc(C(=O)NC(Cc2ccc(C(F)(F)P(=O)(O)O)cc2)C(=O)NC(CCCNC(=O)c2cccc(I)c2)C(N)=O)cc1Br` (centres unmarked) [Compound 5], on PTP-MEG2 (Compound 5 vs Compound 3, Compound 7 vs Compound 5), the “improvement in potency / binding affinity for PTP-MEG2 over the preceding lead” value is reported as 3.3 fold. In addition, the IC50 is 270 ± 70 nM at PTP-MEG2 and 3400 ± 80 nM at PTP1B (pNPP substrate). Further, on PTP1B (ratio of IC50 values), the “selectivity for PTP-MEG2 over PTP1B” value stood at 12.6 fold.
`CC(=O)NC(Cc1ccc(C(F)(F)P(=O)(O)O)cc1)C(=O)NC(CCCNC(=O)c1cccc(I)c1)C(N)=O` (centres unmarked) [Compound 3]: the 50% inhibitory concentration (IC50) at PTP-MEG2 came to 900 ± 20 nM.

These data come from patent US9340574B2, “Inhibitors of protein tyrosine phosphatases” (Indiana University Research and Technology Corporation, priority 2012, dated 2016).
